Test results: paper PMC12763877 (Journal of Experimental & Clinical Cancer Research : CR, 2025)

Assays:
Assay type in all cases: cell-based, human
[1] = tested on: HUVEC; test: Tube formation assay; details: candesartan 15, 7.5, 3.75 µM; sunitinib 2 µM
Method: The 96-well plate was coated with 50 µl matrix glue per well, and then HUVEC was inoculated into the 96-well plate coated with matrix glue with a density of 4 × 10^4 cells per well. Photos were taken with an optical microscope (Nikon, China) after culture at 37℃ and 5% CO2 for 6–8 h, and the length of the generated blood vessels was analyzed using ImageJ.

[2] = tested on: HUVEC; test: Annexin V-FITC/PI apoptosis assay (flow cytometry); details: 3.75-15 µM
Source text: The Annexin V-FITC/PI Apoptosis Detection Kit (Vazyme) was used to detect cell apoptosis according to the manufacturer’s instructions. Cells were stained with the kit and then analyzed using flow cytometry (Becton Dickinson [BD]).

[3] = tested on: STING signaling pathway in HUVEC; test: Western blot of STING pathway proteins; details: 48 h
Method: (§1) Total protein was extracted using RIPA lysis buffer (Solarbio, China) supplemented with phenylmethylsulfonyl fluoride (PMSF; Thermo Fisher Scientific, USA), protease inhibitor cocktail (Roche, Switzerland), and phosphatase inhibitor cocktail (Roche, Switzerland). Protein concentration was determined using a BCA protein assay kit (Thermo Fisher Scientific, USA). Equal amounts of protein were separated by 10% SDS-polyacrylamide gel electrophoresis (SDS-PAGE) and transferred onto nitrocellulose (NC) membranes. […] All primary antibodies were purchased from Cell Signaling Technology (CST, USA), except for GAPDH, which was obtained from Proteintech (Wuhan, China). After washing, the membranes were incubated with HRP-conjugated goat anti-rabbit or anti-mouse IgG secondary antibodies (Biosharp, China) for 1 h at room temperature. Protein bands were visualized using an enhanced chemiluminescence (ECL) detection system and scanned using a chemiluminescence imaging system.

[4] = tested on: HUVEC; test: Wound healing and Transwell assays; details: candesartan 15, 7.5, 3.75 µM; sunitinib 2 µM; 48 h
Method: HUVEC cells were digested and inoculated into 6-well plates, with 1 × 10^5 cells added to each hole. On the second day, the gun head was drawn vertically along the edge of the upper lid of the hole plate. The cells were washed twice with PBS, the scratched cells were removed, and the serum free medium containing drugs was added. The photos were taken and recorded under the microscope for 0 h and cultured in a 5% CO2 incubator at 37℃. After 48 h, the sample was taken and photographed for recording. The cell scratch area was calculated with Image J software.
Migration assays were performed using the Transwell cell culture insert. HUVEC (3 × 10^4 cells) were suspended with 100µL serum-free medium containing different concentrations of compounds and placed in the upper layer of the Transwell cell culture insert, and 300µL medium containing 10% FBS was placed below the cell-permeable membrane. Following an incubation (48 h), the cells that had migrated through the membrane were stained with 0.2% crystal violet for 30 min and count.

[5] = tested on: FAK-MMP9 signaling in HUVEC; test: Western blot of FAK and MMP-9; details: candesartan 15, 7.5, 3.75 µM; sunitinib 2 µM
Method: as §1

**Q.** Which results are given for CCOc1nc2cccc(C(=O)O)c2n1Cc1ccc(-c2ccccc2-c2nnn[nH]2)cc1 [Compound A-2, Candesartan]?
**A.** Tube formation: mean mesh size and total mesh area [1]: increase the mean mesh and the total meshe area; Tube formation: number of junctions, total segment length, number of meshes [1]: significantly reduced the number of junctions, total segment length, and the number of meshes; HUVEC apoptosis [2]: no apoptosis was observed; STING, p-TBK1/TBK1 and p-IRF3/IRF3 levels [3]: dose-dependent upregulation; Migratory and invasive capacities of HUVECs [4]: significantly reduced the migratory and invasive capacities of HUVECs; Expression of MMP9 and FAK [5]: significantly decreased the expression of MMP9 and FAK
